Experimental data taken from US9193719B2, “1,2,4-triazol-5-ones and analogs exhibiting anti-cancer and anti-proliferative activities” (Deciphera Pharmaceuticals, LLC, priority 2013, dated 2015).

Tests used:
[1] = biological target: T1, unphosphorylated c-FMS kinase (uFMS, Seq. ID no. 1) (Homo sapiens, UniProt P07333); test: uFMS kinase enzymatic assay (pyruvate kinase/lactate dehydrogenase coupled); assay type: biochemical; settings: ATP 500 μM, rate 3 to 4 h
T1 construct: purchased Millipore
T1 sequence (P07333 538-972): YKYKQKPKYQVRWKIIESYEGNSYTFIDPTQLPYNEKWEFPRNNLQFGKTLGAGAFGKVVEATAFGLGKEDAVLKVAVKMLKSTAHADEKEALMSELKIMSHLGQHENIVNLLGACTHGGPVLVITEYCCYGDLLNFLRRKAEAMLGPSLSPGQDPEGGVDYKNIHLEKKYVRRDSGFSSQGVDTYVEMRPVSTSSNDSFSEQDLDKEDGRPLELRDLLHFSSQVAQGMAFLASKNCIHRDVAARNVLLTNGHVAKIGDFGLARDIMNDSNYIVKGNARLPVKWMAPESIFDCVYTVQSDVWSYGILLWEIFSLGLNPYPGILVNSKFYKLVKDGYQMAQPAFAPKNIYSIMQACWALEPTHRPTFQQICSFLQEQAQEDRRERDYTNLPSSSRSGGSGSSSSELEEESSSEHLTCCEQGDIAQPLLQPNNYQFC
Experimental: uFMS Kinase (Seq. ID No. 1) Assay
Activity of unphosphorylated c-FMS kinase (uFMS, Seq. ID no. 1) was determined by following the production of ADP from the FMS kinase reaction with ATP and poly E4Y as substrates through coupling with the pyruvate kinase/lactate dehydrogenase system (e.g., Schindler et al. Science (2000) 289: 1938-1942). In this assay, the oxidation of NADH (thus the decrease at A340 nm) was continuously monitored spectrophometrically. The reaction mixture (100 μL) contained FMS (purchased from Millipore) (10 nM), polyE4Y (1 mg/mL), MgCl2 (10 mM), pyruvate kinase (4 units), lactate dehydrogenase (0.7 units), phosphoenol pyruvate (1 mM), NADH (0.28 mM) and ATP (500 μM) in 90 mM Tris buffer containing 0.2% octyl-glucoside and 1% DMSO, pH 7.5. The inhibition reaction was started by mixing serial diluted test compound with the above reaction mixture. The absorption at 340 nm was monitored continuously for 4 hours at 30° C. on Synergy 2 plate reader. The reaction rate was calculated using the 3 to 4 h time frame. Percent inhibition was obtained by comparison of reaction rate with that of a control (i.e. in the absence of test compound). IC50 values were calculated from a series of percent inhibition values determined at a range of inhibitor concentrations using software routines as implemented in the GraphPad Prism software package.

[2] = biological target: T2, unphosphorylated c-KIT kinase (uKIT, Seq. ID no. 2) (Homo sapiens, UniProt P10721); test: uKit kinase enzymatic assay (pyruvate kinase/lactate dehydrogenase coupled); assay type: biochemical; settings: ATP 2000 μM, rate 3 to 4 h
T2 construct: uKit with N-terminal GST fusion used for screening
T2 sequence (P10721 with tags, fused parts or gaps): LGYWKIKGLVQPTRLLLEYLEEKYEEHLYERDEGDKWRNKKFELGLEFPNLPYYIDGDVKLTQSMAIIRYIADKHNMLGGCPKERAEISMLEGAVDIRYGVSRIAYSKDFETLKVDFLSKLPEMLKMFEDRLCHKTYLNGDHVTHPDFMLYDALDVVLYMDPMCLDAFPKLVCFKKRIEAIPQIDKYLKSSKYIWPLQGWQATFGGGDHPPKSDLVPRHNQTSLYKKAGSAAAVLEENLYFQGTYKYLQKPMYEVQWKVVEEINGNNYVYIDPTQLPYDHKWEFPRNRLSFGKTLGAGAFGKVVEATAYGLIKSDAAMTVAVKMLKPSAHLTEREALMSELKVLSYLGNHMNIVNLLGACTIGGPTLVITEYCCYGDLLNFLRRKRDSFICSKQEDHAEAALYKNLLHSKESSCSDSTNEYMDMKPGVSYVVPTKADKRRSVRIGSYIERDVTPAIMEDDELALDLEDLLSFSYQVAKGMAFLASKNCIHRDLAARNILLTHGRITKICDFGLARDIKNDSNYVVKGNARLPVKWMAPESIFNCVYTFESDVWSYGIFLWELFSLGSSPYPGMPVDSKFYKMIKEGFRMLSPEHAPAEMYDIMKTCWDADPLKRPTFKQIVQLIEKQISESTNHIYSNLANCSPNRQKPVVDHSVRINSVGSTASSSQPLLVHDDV
Experimental: uKit Kinase (Seq. ID No. 2) Assay
Activity of unphosphorylated c-KIT kinase (uKIT, Seq. ID no. 2) was determined by following the production of ADP from the KIT kinase reaction with ATP and poly E4Y as substrates through coupling with the pyruvate kinase/lactate dehydrogenase system (e.g., Schindler et al. Science (2000) 289: 1938-1942). In this assay, the oxidation of NADH (thus the decrease at A340 nm) was continuously monitored spectrophometrically. The reaction mixture (100 μl) contained unphosphorylated KIT (12 nM), polyE4Y (1 mg/mL), MgCl2 (10 mM), pyruvate kinase (4 units), lactate dehydrogenase (0.7 units), phosphoenol pyruvate (1 mM), and NADH (0.28 mM) and ATP (2000 μM) in 90 mM Tris buffer containing 0.2% octyl-glucoside and 1% DMSO, pH 7.5. The inhibition reaction was started by mixing serial diluted test compound with the above reaction mixture. The absorption at 340 nm was monitored continuously for 4 hours at 30° C. on Synergy 2 plate reader (BioTech). Reaction rates around 3 to 4 h time frame were used to calculate % inhibitions, from which IC50 values were generated.

[3] = biological target: T3, unphosphorylated PDGFRβ kinase (uPDGFRβ, Seq. ID No. 3) (Homo sapiens, UniProt P09619); test: uPDGFRβ kinase enzymatic assay (pyruvate kinase/lactate dehydrogenase coupled); assay type: biochemical; settings: ATP 500 μM, rate 1.5 to 2.5 h
T3 construct: purchased DeCode
T3 sequence (P09619 557-1106): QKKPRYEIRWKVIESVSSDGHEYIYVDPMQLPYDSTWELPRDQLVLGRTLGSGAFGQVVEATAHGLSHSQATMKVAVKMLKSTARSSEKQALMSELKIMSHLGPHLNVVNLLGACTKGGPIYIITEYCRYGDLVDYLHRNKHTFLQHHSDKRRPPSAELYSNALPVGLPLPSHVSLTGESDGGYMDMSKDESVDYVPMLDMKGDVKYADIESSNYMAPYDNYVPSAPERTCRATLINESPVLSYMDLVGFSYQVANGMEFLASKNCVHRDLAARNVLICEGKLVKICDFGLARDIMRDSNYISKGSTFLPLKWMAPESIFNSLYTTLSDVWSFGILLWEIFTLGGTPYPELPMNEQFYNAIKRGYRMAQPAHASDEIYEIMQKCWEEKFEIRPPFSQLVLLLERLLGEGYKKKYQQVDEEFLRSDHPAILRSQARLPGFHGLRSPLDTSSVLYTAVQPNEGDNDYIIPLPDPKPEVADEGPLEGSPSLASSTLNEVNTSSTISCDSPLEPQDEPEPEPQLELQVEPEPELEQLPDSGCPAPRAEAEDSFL
Experimental: Unphosphorylated PDGFRβ (uPDGFRβ) Kinase (Seq. ID No. 3) Assay
Activity of unphosphorylated PDGFRβ kinase (uPDGFRβ, Seq. ID No. 3) was determined by following the production of ADP from the kinase reaction with ATP and poly E4Y as substrates through coupling with the pyruvate kinase/lactate dehydrogenase system (e.g., Schindler et al. Science (2000) 289: 1938-1942). In this assay, the oxidation of NADH (thus the decrease at A340 nm) was continuously monitored spectrophometrically. The reaction mixture (100 μL) contained PDGFRβ (DeCode, 15.7 nM), polyE4Y (2.5 mg/mL), MgCl2 (10 mM), pyruvate kinase (4 units), lactate dehydrogenase (0.7 units), phosphoenol pyruvate (1 mM) and NADH (0.28 mM) and ATP (500 μM) in a 90 mM Tris buffer containing 0.2% octyl-glucoside and 1% DMSO, at pH 7.5. The inhibition reaction was started by mixing serial diluted test compound with the above reaction mixture. The absorption at 340 nm was monitored continuously for 4 h at 30° C. on a Polarstar Optima or Synergy 2 plate reader. The reaction rate was calculated using the 1.5 to 2.5 h time frame. Percent inhibition was obtained by comparison of reaction rate with that of a control (i.e. with no test compound). IC50 values were calculated from a series of percent inhibition values determined at a range of inhibitor concentrations using software routines as implemented in the GraphPad Prism software package.

osteoclast precursors = test: Osteoclast tartrate-resistant acid phosphatase assay; assay type: cell-based; settings: RANKL and M-CSF, 7-14 days, tartrate-resistant acid phosphatase activity
Experimental: Osteoclast Tartrate-Resistant Acid Phosphatase Assay
A serial dilution of test compound was dispensed into a 384-well black clear bottom plate (Nalge Nunc International, Rochester, N.Y.). Compound was diluted by the addition of DMEM media supplemented with 10% characterized fetal bovine serum (Invitrogen, Carlsbad, Calif.). Diluted compound was transferred to a 384-well black clear bottom plate. Two-thousand five hundred osteoclast precursors (Lonza, Walkersville, Md.) were added per well in growth media containing Receptor Activator of Nuclear Factor Kappa-beta ligand (RANKL) and M-CSF (R&D Systems, Minneapolis, Minn.). Plates were incubated for 7-14 days at 37 degrees Celsius, 5% CO2, and 95% humidity to allow differentiation of osteoclast precursors. At the end of the incubation period, 10 μL of supernatant from each well was transferred to a clear 384-well plate. Tartrate-resistant acid phosphatase activity in the supernatant samples was determined using an acid phosphatase assay kit (Sigma, St. Louis, Mo.). Absorbance was measured at 550 nm using a plate reader. Data was analyzed using Prism software (Graphpad, San Diego, Calif.) to calculate IC50 values.

Structure (SMILES)	IC50 [1] [µM]	IC50 [2] [µM]	IC50 [3] [µM]	IC50 (osteoclast precursors) [µM]
Cc1nc(-n2nc(C3(C(F)(F)F)CCC3)[nH]c2=O)ccc1Oc1ccnc(-c2cnn(C)c2)c1 [Example 43, 1-(6-methyl-5-((2-(1-methyl-1H-pyrazol-4-yl)pyridin-4-yl)oxy)pyridin-2-yl)-3-(1-(trifluoromethyl)cyclobutyl)-1H-1,2,4-triazol-5(4H)-one]	≤ 0.01	0.01 to 0.1	0.1 to 1	0.01 to 0.1
Cc1nc(-n2nc(C3CCCCC3)[nH]c2=O)ccc1Oc1ccnc(-c2cnn(C)c2)c1 [Example 6, 3-cyclohexyl-1-(6-methyl-5-((2-(1-methyl-1H-pyrazol-4-yl)pyridin-4-yl)oxy)pyridin-2-yl)-1H-1,2,4-triazol-5(4H)-one]	≤ 0.01	0.01 to 0.1	0.1 to 1	0.01 to 0.1
Cc1nc(-n2nc(C(C)(C)C)[nH]c2=O)ccc1Oc1ccnc(-c2ccc(C3CCN(C)CC3)cc2)c1 [Example 14, 3-(tert-butyl)-1-(6-methyl-5-((2-(4-(1-methylpiperidin-4-yl)phenyl)pyridin-4-yl)oxy)pyridin-2-yl)-1H-1,2,4-triazol-5(4H)-one]	≤ 0.01	0.01 to 0.1	> 1	≤ 0.01
Cc1nc(-n2nc(C3CCOCC3)[nH]c2=O)ccc1Oc1ccnc(-c2cnn(C)c2)c1 [Example 20, 1-(6-methyl-5-((2-(1-methyl-1H-pyrazol-4-yl)pyridin-4-yl)oxy)pyridin-2-yl)-3-(tetrahydro-2H-pyran-4-yl)-1H-1,2,4-triazol-5(4H)-one]	≤ 0.01	0.1 to 1	> 1	0.1 to 1
Cc1nc(-n2nc(C(C)(C)C)[nH]c2=O)ccc1Oc1ccnc(NC(=O)N(C)C)c1 [Example 30, 3-(4-((6-(3-(tert-butyl)-5-oxo-4,5-dihydro-1H-1,2,4-triazol-1-yl)-2-methylpyridin-3-yl)oxy)pyridin-2-yl)-1,1-dimethylurea]	0.01 to 0.1	> 1	> 1	0.01 to 0.1
Cc1cc(-n2nc(C(C)(C)C)[nH]c2=O)nc(C)c1Oc1ccnc(-c2cnn(C)c2)c1 [Example 33, 3-(tert-butyl)-1-(4,6-dimethyl-5-((2-(1-methyl-1H-pyrazol-4-yl)pyridin-4-yl)oxy)pyridin-2-yl)-1H-1,2,4-triazol-5(4H)-one]	0.01 to 0.1	0.1 to 1	0.1 to 1	0.1 to 1
Cc1cc(-n2nc(C(C)(C)C)[nH]c2=O)ncc1Oc1ccnc(-c2cnn(C)c2)c1 [Example 31, 3-(tert-butyl)-1-(4-methyl-5-((2-(1-methyl-1H-pyrazol-4-yl)pyridin-4-yl)oxy)pyridin-2-yl)-1H-1,2,4-triazol-5(4H)-one]	≤ 0.01	0.01 to 0.1	0.1 to 1	0.01 to 0.1

Further lines, results first:

IC50 [1] [µM]	IC50 [2] [µM]	IC50 [3] [µM]	IC50 (osteoclast precursors) [µM]	Structure (SMILES)
0.01 to 0.1	> 1	> 1	0.01 to 0.1	Cc1nc(-n2cc(C(C)(C)C)[nH]c2=O)ccc1Oc1ccnc(-c2cnn(C)c2)c1 [Example 48, 4-(tert-butyl)-1-(6-methyl-5-((2-(1-methyl-1H-pyrazol-4-yl)pyridin-4-yl)oxy)pyridin-2-yl)-1H-imidazol-2(3H)-one]
0.01 to 0.1	0.1 to 1	> 1	0.1 to 1	Cc1nc(-n2nc(C(C)(C)C)n(C)c2=O)ccc1Oc1ccnc(-c2cnn(C)c2)c1 [Example 13, 3-(tert-butyl)-4-methyl-1-(6-methyl-5-((2-(1-methyl-1H-pyrazol-4-yl)pyridin-4-yl)oxy)pyridin-2-yl)-1H-1,2,4-triazol-5(4H)-one]
≤ 0.01	0.1 to 1	> 1	0.01 to 0.1	Cc1nc(-n2nc(C(C)(C)C)[nH]c2=O)ccc1Oc1ccnc(-c2cnn(C)c2)c1 [Example 7, 3-(tert-butyl)-1-(6-methyl-5-((2-(1-methyl-1H-pyrazol-4-yl)pyridin-4-yl)oxy)pyridin-2-yl)-1H-1,2,4-triazol-5(4H)-one]
≤ 0.01	> 1	> 1	0.01 to 0.1	CCn1cc(-c2cc(Oc3ccc(-n4nc(C(C)(C)C)[nH]c4=O)nc3C)ccn2)cn1 [Example 38, 3-(tert-butyl)-1-(5-((2-(1-ethyl-1H-pyrazol-4-yl)pyridin-4-yl)oxy)-6-methylpyridin-2-yl)-1H-1,2,4-triazol-5(4H)-one]
≤ 0.01	0.01 to 0.1	> 1	0.01 to 0.1	CCC(C)(C)c1nn(-c2ccc(Oc3ccnc(-c4cnn(C)c4)c3)c(C)n2)c(=O)[nH]1 [Example 25, 1-(6-methyl-5-((2-(1-methyl-1H-pyrazol-4-yl)pyridin-4-yl)oxy)pyridin-2-yl)-3-(tert-pentyl)-1H-1,2,4-triazol-5(4H)-one]
≤ 0.01	0.1 to 1	0.1 to 1	≤ 0.01	Cc1nc(-n2nc(C3CCC3)[nH]c2=O)ccc1Oc1ccnc(-c2cnn(C)c2)c1 [Example 37, 3-cyclobutyl-1-(6-methyl-5-((2-(1-methyl-1H-pyrazol-4-yl)pyridin-4-yl)oxy)pyridin-2-yl)-1H-1,2,4-triazol-5(4H)-one]
0.01 to 0.1	> 1	> 1	0.01 to 0.1	COC(C)(C)c1nn(-c2ccc(Oc3ccnc(-c4cnn(C)c4)c3)c(C)n2)c(=O)[nH]1 [Example 16, 3-(2-methoxypropan-2-yl)-1-(6-methyl-5-((2-(1-methyl-1H-pyrazol-4-yl)pyridin-4-yl)oxy)pyridin-2-yl)-1H-1,2,4-triazol-5(4H)-one]
